Series [1] deals with T1, human SSTR4 (Homo sapiens, UniProt P31391).
T1 construct: expressed in transfected cells
Nature of the series: cell-based human SSTR4 cAMP assay (agonist activity). As to conditions: SSTR4, EC50 (nM), Flp-In-CHO-SSTR4 stable pool, Forskolin-stimulated cAMP. The protocol:
Purpose of test: A cell-based human SSTR4 cAMP assay was used to determine the agonistic effect of the test compound on an SSTR 4 receptor.
Cell culture and reagent preparation: cell line: Flp-In-CHO-SSTR4 stable pool; complete medium: Ham’s F-12 K + 10% FBS + 1 × penicillin-streptomycin (PS) + 600 µg/ml hygromycin B; cell seeding medium: Ham’s F-12K + 10% FBS; assay buffer: 1 × HBSS + 20 mM HEPES + 0.1%BSA + 500 uM IBMX.
The Flp-In-CHO-SSTR 4 stable pool cell line was cultured in a complete medium at 37° C., 5% CO2 until a confluency of 70% to 90%.
After TrypLE digestion, the cells were resuspended in the seeding medium and seeded in a 384-well cell culture plate (384 PE culture plate), with 7,000 cells per well, and were cultured overnight at 37° C., 5% CO2.
The cell culture plate was taken out, inverted at 200 g at room temperature for 5 s to remove the medium, then quickly filled with 15 µl of an experimental buffer to each experimental well, and centrifuged at 200 g at room temperature for 5 s.
2.5 µl of the 8x compound working solution diluted in step 3 was added to corresponding test wells, which were centrifuged at 200 g for 5 s at room temperature, and incubated at 37° C. for 10 min.
A 4 uM Forskolin working solution (8x) was prepared.
The cell plate was taken out and equilibrated to room temperature, then filled with 2.5 µl of the 8x Forskolin working solution prepared in step 6 to corresponding test wells, followed by RT at 200 g for 5 s, and left to stand at 37° C. for 30 min.
A Eu-cAMP tracer and Uliaght-anti-cAMP were freeze-thawed, the Eu-cAMP tracer was diluted 50-fold with a detection buffer, and the Uliaght-anti-cAMP was dilutd 150-fold.
10 µl of the Eu-cAMP tracer was added to all experimental wells, then 10 µl of the detection buffer was added to NC wells, and 10 µl of the Uliaght-anti-cAMP was added to the remaining experimental wells.
The reaction plate was centrifuged at 200 g for 30 s at room temperature, and after standing at 25° C. for 1 h, data was collected using Envision.
Compound EC50 was calculated using a GraphPad nonlinear fitting formula: […]
X: Compound concentration log value; Y: HTRF ratio
On the technique in general: Changes in cAMP serve as a functional read-out for many G protein-coupled receptors.

Series [2] in a line: metabolic stability in pooled human liver microsomes. Particulars: pH 7.4. The method, then:
(§1) Metabolic degradation of a test compound was analyzed using pooled human liver microsomes and male rat liver microsomes, respectively, at 37° C.
(§2) After pre-incubation at 37° C. for 5 min, NADPH (5 mM, 60 µL) was added to initiate a reaction. A fixed volume of the reaction mixture (30 µL) was sampled into the solution at fixed time points (0, 5, 15, 30, 60 min) to quench the reaction. After centrifugation (4000 rpm, 15 min), the supernatant (100 µL) was mixed with distilled water (100 µL) and then subjected to LC-MS/MS analysis to test the amount of the compound. A half-life was calculated using a first-order reaction kinetic equation (Ct = C0 × e^-ket, T½ = Ln2/ke).
Background: Liver microsomes are vesicles of endoplasmic reticulum, rich in cytochrome P450 enzymes.

Series [3] can be described thus: metabolic stability in male rat liver microsomes. Particulars: pH 7.4. The method, then:
as §1, §2

For series [4], the system named is rat CFA pain model. Nature of the series: single-dose pharmacodynamic study in rat CFA pain model (Von Frey PWT). Format: in vivo. The method, then: Each male SD rat (7-8 weeks old) was injected with 50 microliters of CFA in the center of the left hind paw. A PWT basal value test was conducted 24 hours after modeling, and the drugs were administered after randomization.
There were 8 animals in each group, and the animals were weighed and administered according to Table 4.
For all groups of animals, paw withdrawal thresholds (PWTs) of the animals were tested using Von Frey after 1 h and 3 h of single administration.

For series [5], the system named is rat CFA pain model. Nature of the series: multi-dose oral pharmacodynamic study in rat CFA pain model (Von Frey PWT). Format: in vivo. The protocol: The efficacy of Compound 1a and Compound 14 in the rat CFA pain model was evaluated using a mechanical allodynia method.
SD rats, 72 males, divided into 9 groups, were purchased from Beijing Vital River Laboratory Animal Technology Co., Ltd.
The experimental animals were adaptively reared for 3 to 7 days, and 8 of them were selected as a normal control group, and the other animals were injected with 50 µL of CFA in the center of the left hind paw for modeling. 24 hours after injection, the animals were tested for paw withdrawal threshold (PWT) basal values, and were divided into groups according to the basal values, which were solvent control group, indomethacin group, Compound 1a, 10 mpk group, Compound 1a, 30 mpk group, Compound 1a, 100 mpk group, Compound 14, 3 mpk group, Compound 14, 10 mpk group, and Compound 14, 30 mpk group, with 8 animals in each group. Subsequently, the animals were weighed and administered orally according to Table 6. All the animals were tested for paw withdrawal thresholds (PWT) using Von Frey 1, 2, and 4 hours after administration to further evaluate the efficacy of the compounds of the present invention.

The record followed here is patent publication US20230192683A1, “FUSED RING COMPOUNDS, PREPARATION METHOD THEREFOR, PHARMACEUTICAL COMPOSITIONS AND USE THEREOF” (priority 2020, published 2023).

Where a name gives a salt, the structure may show the parent alone. Marks after values point to notes of the source that are not given here.

T1 sequence (P31391 whole entry): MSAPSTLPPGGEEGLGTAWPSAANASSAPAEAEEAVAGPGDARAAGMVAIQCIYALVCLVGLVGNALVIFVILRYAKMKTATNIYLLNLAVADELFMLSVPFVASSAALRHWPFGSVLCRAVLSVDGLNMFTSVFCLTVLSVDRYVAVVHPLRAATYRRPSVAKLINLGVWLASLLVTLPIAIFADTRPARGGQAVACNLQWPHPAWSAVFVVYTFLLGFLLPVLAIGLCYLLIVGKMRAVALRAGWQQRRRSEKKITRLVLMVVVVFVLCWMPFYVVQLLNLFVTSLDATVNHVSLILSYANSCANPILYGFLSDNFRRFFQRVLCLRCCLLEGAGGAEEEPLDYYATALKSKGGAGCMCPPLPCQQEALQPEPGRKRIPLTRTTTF

With `CSc1cccn2c(C(C)(C)NC(=O)C3C4CNCC43C)ncc12` (single isomer, unassigned) [Compound 5-P1, 1-Methyl-N-(2-(8-(Methylthio)Imidazo[1,5-a]Pyridin-3-yl)Propan-2-yl)-3-Azabicyclo[3.1.0]Hexane-6-Carboxamide], the EC50 (commonly the concentration that produces a half-maximal response) in series [1] is 1.25 nM.
As for `CSc1cccn2c(C(C)(C)NC(=O)C3C4CNCC43C)ncc12` (single isomer, unassigned) [Compound 5-P2, 1-methyl-N-(2-(8-(methylthio)imidazo[1,5-a]pyridin-3-yl)propan-2-yl)-3-azabicyclo[3.1.0]hexane-6-carboxamide], in series [1], the concentration giving a half-maximal response (EC50) came out at 0.41 nM.
For `CSc1cccn2c(C(C)(C)NC(=O)[C@H]3[C@@H]4CNC[C@@H]43)ncc12.Cl` [Compound 1, (1R,5S,6R)-N-(2-(8-(Methylthio)Imidazo[1,5-a]Pyridin-3-yl)Prop-2-yl)-3-Azabicyclo[3.1.0]Hexane-6-Carboxamide Hydrochloride], the half-life at 1 µM in series [2] (microsomes) and in series [3] (microsomes) was above 3.11 h throughout. This molecule gave an EC50 in series [1] of 0.15 nM.
`CC(C)(CSc1ccccc1C(F)(F)F)NC(=O)[C@H]1[C@@H]2CNC[C@@H]21` [Compound 2, (1R,5S,6R)-N-(2-Methyl-1-((2-(Trifluoromethyl)Phenyl)Thio)Prop-2-yl)-3-Azabicyclo[3.1.0]Hexane-6-Carboxamide Formate] showed an EC50 in series [1] of 6.77 nM.
The molecule `CC(C)(NC(=O)[C@H]1[C@@H]2CNC[C@@H]21)c1ncc2c(SC3CCCC3)cccn12` [Compound 3, (1R,SS,6R)-N(2-(8-(Cyclopentylthio)Imidazo[1,5-a]Pyridin-3-yl)Prop-2-yl)-3-Azabicyclo[3.1.0]Hexane-6-Carboxamide] had an EC50 in series [1] of 10.5 nM.
Still for that read-out and setting: with `CC(C)(NC(=O)[C@H]1[C@@H]2CNC[C@@H]21)c1ncc2c(Sc3nccs3)cccn12` [Compound 4, (1R,5S,6R)-N-(2-(8-(Thiazol-2-Ylsulfanyl)Imidazo[1,5-a]Pyridin-3-yl)Prop-2-yl)-3-Azabicyclo[3.1.0]Hexane-6-Carboxamide] the figure was 36.7 nM; with `CCSc1cccn2c(C(C)(C)NC(=O)[C@H]3[C@@H]4CNC[C@@H]43)ncc12` [Compound 6, (1R,5S,6R)-N-(2-(8-(Ethylthio)Imidazo[1,5-a]Pyridin-3-yl)Prop-2-yl)-3-Azabicyclo[3.1.0]Hexane-6-Carboxamide Hydrochloride], 0.73 nM.
Same read-out and setting: with `CC(C)Sc1cccn2c(C(C)(C)NC(=O)[C@H]3[C@@H]4CNC[C@@H]43)ncc12` [Compound 7, (1R,5S,6R)-N-(2-(8-(Isopropylthio)Imidazo[1,5-a]Pyridin-3-yl)Prop-2-yl)-3-Azabicyclo[3.1.0]Hexane-6-Carboxamide] the figure was 3.29 nM; with `CC(C)(NC(=O)[C@H]1[C@@H]2CNC[C@@H]21)c1ncc2c(SCC3CC3)cccn12` [Compound 8, (1R,5S,6R)-N-(2-(8-((Cyclopropylmethyl)Thio)Imidazo[1,5-a]Pyridin-3-yl)Propan-2-yl)-3-Azabicyclo[3.1.0]Hexane-6-Carboxamide], 0.5 nM.
For `CC(C)(NC(=O)[C@H]1[C@@H]2CNC[C@@H]21)c1ncc2c(SCc3ccccc3)cccn12` [Compound 9, (1R,5S,6R)-N-(2-(8-(Benzylthio)Imidazo[1,5-a]Pyridin-3-yl)Prop-2-yl)-3-Azabicyclo[3.1.0]Hexane-6-Carboxamide], the EC50 in series [1] is 3.42 nM.
Regarding `CC(C)CSc1cccn2c(C(C)(C)NC(=O)[C@H]3[C@@H]4CNC[C@@H]43)ncc12` [Compound 10, (1R,5S,6R)-N-(2-(8-(Isobutylthio)Imidazo[1,5-a]Pyridin-3-yl)Prop-2-yl)-3-Azabicyclo[3.1.0]Hexane-6-Carboxamide], the response in series [1] was half-maximal at 7.89 nM (EC50).
In turn, `CC(C)(NC(=O)[C@H]1[C@@H]2CNC[C@@H]21)c1ncc2c(SCC3CCC3)cccn12` [Compound 11, (1R,5S,6R)-N-(2-(8-((Cyclobutylmethyl)Thio)Imidazo[1,5-a]Pyridin-3-yl)Propan-2-yl)-3-Azabicyclo[3.1.0]Hexane-6-Carboxamide] came in with an EC50 in series [1] of 2.47 nM.
The same measure, in the same setting: to `CC(C)(NC(=O)[C@H]1[C@@H]2CNC[C@@H]21)c1ncc2c(SC3CCC3)cccn12` [Compound 12, (1R,5S,6R)-N-(2-(8-(Cyclobutylthio)Imidazo[1,5-a]Pyridin-3-yl)Prop-2-yl)-3-Azabicyclo[3.1.0]Hexane-6-Carboxamide] belongs 1.83 nM; to `CC(C)(NC(=O)[C@H]1[C@@H]2CNC[C@@H]21)c1ncc2c(SCC3CCCC3)cccn12` [Compound 13, (1R,5S,6R)-N-(2-(8-((Cyclopentylmethyl)Thio)Imidazo[1,5-a]Pyridin-3-yl)Propan-2-yl)-3-Azabicyclo[3.1.0]Hexane-6-Carboxamide], 7.58 nM.
In the case of `CSc1cccc2c(C(C)(C)NC(=O)[C@H]3[C@@H]4CNC[C@@H]43)n[nH]c12` [Compound 15, (1R,5S,6R)-N-(2-(7-(Methylthio)-1H-Indazol-3-yl)Propan-2-yl)-3-Azabicyclo[3.1.0]Hexane-6-Carboxamide], the half-life at 1 µM in series [2] (pooled human liver microsomes) and in series [3] (rat liver microsomes) was above 3.11 h each time. The same molecule yielded an EC50 in series [1] of 0.046 nM.
The molecule `CSc1ccccc1C(C)(C)NC(=O)[C@H]1[C@@H]2CNC[C@@H]21` [Compound 16, (1R,5S,6R)-N-(2-(2-(Methylthio)Phenyl)Propan-2-yl)-3-Azabicyclo[3.1.0]Hexane-6-Carboxamide] showed an EC50 in series [1] of 1.25 nM.
As to `CSc1nc(C(C)(C)NC(=O)[C@H]2[C@@H]3CNC[C@@H]32)n2cccc(C)c12` [Compound 17, (1R,5S,6R)-N-(2-(8-Methyl-1-(Methylthio)Imidazo[1,5-a]Pyridin-3-yl)Propan-2-yl)-3-Azabicyclo[3.1.0]Hexane-6-Carboxamide], the half-life at 1 µM in series [2] (pooled human liver microsomes) and in series [3] (rat liver microsomes) was above 3.11 h throughout. In series [1], the response was half-maximal at 0.068 nM (EC50).
Turning to `COc1ccc2c(c1)c(CC(=O)O)c(C)n2C(=O)c1ccc(Cl)cc1` [Indomethacin, reference compound], the “Mechanical allodynia test (PWT (g), mean) Baseline” value in series [4] (30 mg/kg P.O. group, baseline 24 h after CFA, before administration) came out at 3.554 g. Further, in series [4] (30 mg/kg P.O., 1 hour after single administration), the “Mechanical allodynia test (PWT (g), mean) 1 hour” value is on record as 4.448 g. For the same molecule, the “inhibition of CFA-induced mechanical allodynia (in words)” value in series [4] (30 mg/kg P.O., 3 hours after administration, FIG. 1) is recorded as “significantly inhibit”; in series [5] (30 mg/kg oral, 2 and 4 hours after administration, FIG. 2) it was “significantly inhibited”. Besides, the “Mechanical allodynia test (PWT (g), mean) 3 hours” value in series [4] (30 mg/kg P.O., 3 hours after single administration) is recorded as 10.360 **** #### g. Further, the “Paw withdrawal threshold (PWT(g)) (average) 0 hours” value in series [5] (30 mg/kg oral group, 0 hours) came to 3.012 g. Further, the “Paw withdrawal threshold (PWT(g)) (average) 1 hour” value in series [5] (30 mg/kg oral, 1 hour) worked out at 4.461 g. The “Paw withdrawal threshold (PWT(g)) (average) 2 hours” value in series [5] (30 mg/kg oral, 2 hours) is recorded as 7.486 ** g. Further, the “Paw withdrawal threshold (PWT(g)) (average) 4 hours” value in series [5] (30 mg/kg oral, 4 hours) is recorded as 6.813 ** g.
